Laboratory results as given in patent publication US4499083A, “3-O-Demethyl derivatives of the istamycin B series of compounds” (Zaidan Hojin Biseibutsu Kagaku Kenkyu Kai, priority 1980, dated 1985).

Legend:
[1] = test system: Gram-negative and Gram-positive bacteria; assay: Antibacterial activity, overall statement; type: cell-based
Experimental: The antibacterial spectra of 3-O-demethylistamycin B.sesquicarbonate and 3-O-demethyl-2"-N-formimidoylistamycin B.disulphate.trihydrate are shown in Table 2, along with that of istamycin B for comparison purposes.
*^1 Determined according to a standard serial dilution method on
nutrient agar plates which were incubated at 37° C. for 17 hours.

[2] = in vivo; settings: mouse, iv
[3] = test system: mice; assay: Acute toxicity by intravenous injection in mice
[4] = test system: Pseudomonas aeruginosa; settings: relative to istamycin A; earlier filings; cited from earlier work

Row | Compound | antibacterial activity (in words) [1] | MTD [2] [mg/kg] | toxicity (in words) [3] | antibacterial activity against Pseudomonas aeruginosa compared with istamycin A [4]
1 | CNCC1CCC(N)C(OC2C(N)CC(O)C(NC)C2O)O1 (stereo not shown) [3-O-Demethylistamycin BO] | poor antibacterial activity | 160 | low toxicity | –
2 | di-N^6',O^3 -demethylistamycin A | – | – | – | significantly higher than that of istamycin A
